Experimental data: patent US4997931A, “Epipodophyllotoxin glycosides” (Bristol-Myers Squibb Company, priority 1990, dated 1991)
≈ marks a conversion by molar mass, not a printed value.

How the values were obtained:
murine P388 leukemia = test: In vivo antitumor activity in the lymphocytic leukemia P388 system; design: species or system mouse (Female CDF1 mice); conditions: i.p., once on day 1 (Q1D×1), over 125% significant
Method: Antitumor activity of representative compounds of the present invention was tested in the lymphocytic leukemia P388 system. Female CDF1 mice were inoculated intraperitoneally with 1.0×10^6 of leukemia cells per mouse (day 0) and test materials were intraperitoneally administered to mice once on day 1 (Q1D×1). […] The median survival time (MST) of each test group was recorded, and antitumor activity was expressed by means of T/C% values calculated by the following equation:
T/C%=(MST treated.div.MST control)×100
The T/C% values of over 125% are considered significant antitumor activity.
(§1) For the in vivo expermient, only the maximum T/C% and the dose giving the maximum value are shown.

[1] = tested on: Murine melanoma B16-F10 cells; test: In vitro cytotoxicity against B16-F10 cells (neutral red staining, 72 hours); type: cell-based; conditions: Mus musculus, 72 hours incubation, read-out: Cytotoxicity (IC50, μg/ml)
Method: Murine melanoma B16-F10 cells were grown and maintained at 37° C. under a humidified atmosphere in a 5% CO2 incubator in Eagle's MEM medium (Nissui) containing kanamycin (60 μg/ml), and supplemented with heat inactivated fetal calf serum (10%) and non-essential amino acids (0.6%). Exponentially growing B16-F10 cells were harvested, counted and suspended in the culture medium at a concentration of 2.0×10^4 cells/ml. Twenty-four hours after planting cell suspension (180 μl) into wells of a 96-well microtiter plate, test materials (20 μl) were added to the wells and the plates were incubated for 72 hours. The cytotoxic activity against B16-F10 cells was colorimetrically determined at 540 nm after staining viable cells with neutral red solution.
as §1

[2] = 120 mg/kg/Day (dose giving maximum T/C%)
[3] = 60 mg/kg/Day (dose giving maximum T/C%)

COc1cc([C@@H]2c3cc4c(cc3[C@@H](O[C@@H]3O[C@@H]5COC(C)O[C@H]5[C@H](O)[C@@H]3O)[C@H]3COC(=O)[C@H]23)OCO4)cc(OC)c1O (stereo partly drawn) [Example 3, 4'-Demethyl-4-O-(4.6-O-ethylidene-β-D-mannopyranosyl)epipodophyllotoxin] was tested, and the “Anti-P388 T/C % (maximum; MST treated/MST control ×100)” value (murine P388 leukemia; 30 mg/kg/Day (dose giving maximum T/C%)) was 186% and the IC50 [1] was 0.12 µg/mL (≈ 0.204 µM).
In the case of COc1cc([C@@H]2c3cc4c(cc3[C@@H](O[C@@H]3O[C@H]([C@H]5COC(C)O5)[C@@H](O)[C@H]3O)[C@H]3COC(=O)[C@H]23)OCO4)cc(OC)c1O (single isomer, unassigned) [Example 2 (epimer I), 4'-demethyl-4-O-(5,6-O-ethylidene-β-D-allofuranosyl)epipodophyllotoxin], the “Anti-P388 T/C % (maximum; MST treated/MST control ×100)” value (murine P388 leukemia; [2]) is reported as 150% and the IC50 [1] is reported as greater than 100 µg/mL.
COc1cc([C@@H]2c3cc4c(cc3[C@@H](O[C@@H]3O[C@H]([C@H]5COC(C)O5)[C@@H](O)[C@H]3O)[C@H]3COC(=O)[C@H]23)OCO4)cc(OC)c1O (single isomer, unassigned) [Example 2 (epimer II), 4'-demethyl-4-O-(5,6-O-ethylidene-β-D-allofuranosyl)epipodophyllotoxin] was tested, and the “Anti-P388 T/C % (maximum; MST treated/MST control ×100)” value (murine P388 leukemia; [3]) was 140%.
With COc1cc([C@@H]2c3cc4c(cc3[C@@H](O[C@H]3O[C@@H]5COC(C)O[C@H]5[C@H](O)[C@@H]3O)[C@H]3COC(=O)[C@H]23)OCO4)cc(OC)c1O (stereo partly drawn) [Example 4, 4'-demethyl-4-O-(4,6-O-ethylidene-α-D-mannopyranosyl)epipodophyllotoxin] the “Anti-P388 T/C % (maximum; MST treated/MST control ×100)” value (murine P388 leukemia; 10 mg/kg/Day (dose giving maximum T/C%)) was 124% and the IC50 [1] was 19 µg/mL (≈ 32.3 µM).
In the case of COc1cc([C@@H]2c3cc4c(cc3[C@@H](O[C@@H]3O[C@@H]5COC(C)O[C@H]5[C@@H](O)[C@H]3O)[C@H]3COC(=O)[C@H]23)OCO4)cc(OC)c1O (stereo partly drawn) [Example 1, 4'-Demethyl-4-O-(4,6-O-ethylidene-β-D-allopyranosyl)epidpodophyllotoxin], the “Anti-P388 T/C % (maximum; MST treated/MST control ×100)” value (murine P388 leukemia; [3]) is reported as 280% and the IC50 [1] is reported as 2.1 µg/mL (≈ 3.57 µM).
In the case of COc1cc([C@@H]2c3cc4c(cc3[C@@H](O[C@@H]3O[C@@H]5CO[C@@H](C)O[C@H]5[C@H](O)[C@H]3O)[C@H]3COC(=O)[C@H]23)OCO4)cc(OC)c1O [Etoposide, reference compound], the “Anti-P388 T/C % (maximum; MST treated/MST control ×100)” value (murine P388 leukemia; [2]) is reported as 288% and the IC50 [1] is reported as 0.21 µg/mL (≈ 0.357 µM).
